The test system of assay [1] is NrF2 (Nuclear factor (erythroid-derived 2)-like 2). The experiment in a line: NrF2 activation in a whole cell nuclear translocation assay. The assay is classed as cell-based. The procedure:
NrF2 Activation in a Whole Cell Nuclear Translocation Assay Compounds were tested in a NrF2 (Nuclear factor (erythroid-derived 2)-like 2) translocation assay by adapting the methods set forth in U.S. Pat. No. 8,101,373, the disclosure of which is incorporated herein by reference.

Assay [2] has as its system experimental autoimmune encephalomyelitis (EAE). The experiment in a line: Autoimmune encephalitis (EAE) in vivo assay in mice. Details: species or system C57BL/6 mice. Conditions: dosed at 60 mg/kg beginning on the day of immunization.
Where [3] appears, read: read-out: NrF2 translocation assay EC50.
[4] abbreviates: reference fumarates, read-out: NrF2 activation EC50.

The structures appear in SMILES notation. Counter-ions that a name gives are not always drawn. Like-named read-outs stand apart in the source and are kept apart here.

By EC50 is commonly meant the concentration giving half of the maximal effect.

Regarding `COC(=O)/C=C/n1nnn(-c2ccccc2)c1=O` [Compound 16, methyl (E)-3-(5-oxo-4-phenyl-4,5-dihydro-1H-tetrazol-1-yl)acrylate], in assay [1] (setting [3]), the concentration giving a half-maximal response (EC50) was 1 µM. Regarding `COC(=O)/C=C/n1nnn(CC(=O)OC)c1=O` [Compound 14, methyl (E)-3-(4-(2-methoxy-2-oxoethyl)-5-oxo-4,5-dihydro-1H-tetrazol-1-yl)acrylate], the EC50 in assay [1] (setting [3]) was found to be 6.7 µM.

For the compound `COC(=O)/C=C/n1nnn(C2CC2)c1=O` [Compound 21, methyl (E)-3-(4-cyclopropyl-5-oxo-4,5-dihydro-1H-tetrazol-1-yl)acrylate], in assay [1] (setting [3]), the EC50 is 7.2 µM.

For the compound `COC(=O)/C=C/n1nnn(C2CCCC2)c1=O` [Compound 11, methyl (E)-3-(4-cyclopentyl-5-oxo-4,5-dihydro-1H-tetrazol-1-yl)acrylate], in assay [1] (setting [3]), the 50% effective concentration (EC50) turned out to be 5.4 µM. Take `COC(=O)/C=C/n1nn[nH]c1=O` [Compound 1, methyl (E)-3-(5-oxo-4,5-dihydro-1H-tetrazol-1-yl)acrylate]: in assay [1] (setting [3]), the 50% effective concentration (EC50) was found to be 61 µM. For the same compound, the “onset of disease paralysis” value is on record as “significantly prevented the onset of disease paralysis” in assay [2] (60 mg/kg) and “significantly prevents the onset of disease paralysis” in assay [2] (listed as compound 1, 60 mg/kg). Turning to `COC(=O)/C=C/C(=O)OC` [dimethyl fumarate, reference compound], the EC50 in assay [1] (setting [4]) was around 7.9 µM.

Consider `COC(=O)/C=C/C(=O)O` [Monomethyl fumarate, monomethyl fumarate, reference compound], for which the EC50 in assay [1] (setting [4]) was around 127 µM. For `COC(=O)/C=C/n1nnn(C(C)C)c1=O` [Compound 6, methyl (E)-3-(4-isopropyl-5-oxo-4,5-dihydro-1H-tetrazol-1-yl)acrylate], the EC50 in assay [1] (setting [3]) worked out at 7.8 µM. With `COC(=O)/C=C/n1nnn(/C=C/C(=O)OC)c1=O` [Compound 20, dimethyl 3,3′-(5-oxo-1H-tetrazole-1,4(5H)-diyl)(2E,2′E)-diacrylate], the EC50 in assay [1] (setting [3]) was 0.7 µM.

As to `COC(=O)/C=C/n1nnn(C(=O)N(C)C)c1=O` [Compound 10, Methyl (E)-3-(4-(dimethylcarbamoyl)-5-oxo-4,5-dihydro-1H-tetrazol-1-yl)acrylate], the EC50 in assay [1] (setting [3]) was 6.1 µM. Turning to `COC(=O)/C=C/n1nnn(C2CCOCC2)c1=O` [Compound 12, methyl (E)-3-(5-oxo-4-(tetrahydro-2H-pyran-4-yl)-4,5-dihydro-1H-tetrazol-1-yl)acrylate], the concentration giving a half-maximal response (EC50) in assay [1] (setting [3]) came out at 10.4 µM.
